Experimental data as given in patent publication US9676715B2, “Bis-indolic derivatives, a process for preparing the same and their uses as a drug” (UNIVERSITE JOSEPH FOURIER, priority 2011, dated 2017).

How the values were obtained:
[1] = system: S. aureus; details: penicillin M compounds; cited from earlier work
[2] = system: MRC5 (human lung fibroblast); experiment: In vitro cytotoxicity; type: cell-based; details: read-out: % of cellular growth inhibition; for inhibition at 10 µM: 10^−5 M; for inhibition at 1 µM: 10^−6 M
Description: (§1) In vitro cytotoxicity was assayed on three cell lines—KB (human mouth carcinoma), MCR5 (human lung fibroblast) and HCT116 (human colon tumor). Results are presented in table IV as % of cellular growth inhibition in presence of 10^−5 M and 10^−6 M of the tested bis-indolic derivatives.

[3] = system: HCT116 (human colon tumor); experiment: In vitro cytotoxicity; type: cell-based; details: read-out: % of cellular growth inhibition; for inhibition at 10 µM: HCT-116, 10^−5 M; for inhibition at 1 µM: HCT-116, 10^−6 M
Description: as §1

[4] = system: KB (human mouth carcinoma); experiment: In vitro cytotoxicity; type: cell-based; details: read-out: % of cellular growth inhibition; for inhibition at 10 µM: 10^−5 M; for inhibition at 1 µM: 10^−6 M
Description: as §1

[5] = system: S. epidermidis CIP 81.55; experiment: MIC, microdilution method (9.1); type: cell-based, Staphylococcus epidermidis; details: Staphylococcus epidermidis, CIP81, read after 18 h, read-out: MIC
Method in brief: (§2)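 Using CLSI M07-A8 broth microdilution, MH broth, 37° C. in air; inoculum 5×10^5 CFU/ml; drug range 0.50-128 mg/L final.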

[6] = system: S. epidermidis CIP 103627; experiment: MIC, microdilution method (9.1); type: cell-based, Staphylococcus epidermidis; details: Staphylococcus epidermidis, CIP103627, read after 18 h, read-out: MIC
Method in brief: as §2

[7] = system: S. epidermidis ATCC 12228; experiment: MIC, microdilution method (9.1); type: cell-based, Staphylococcus epidermidis; details: Staphylococcus epidermidis, ATCC12228, read after 18 h, read-out: MIC
Method in brief: as §2

[8] = system: Staphylococcus aureus 1199B (overexpression of the NorA efflux pump); experiment: Efflux pump inhibition assay with sub-inhibitory ciprofloxacin; type: cell-based; details: S. aureus 1199B
Description: (§3) The efflux pump inhibition potential of the bis-indolic derivatives was tested using two steps.
(§4) The following experimental protocol was used: indolic derivatives (initially solubilised in DMSO at 10 mg/mL) were dispensed in a 96-wells microplate by two fold serial dilutions in Muller-Hinton medium (MH, Bio Rad) using a Biomek 2000 (Beckman) handling robot. 100 μL of the bacterial inoculum (an overnight culture at 37° C. in 5 mL MH diluted 100-fold) was then added in each well. The total volume was 200 μL in each well and the final bacteria concentration 10^6 CFU/mL (CFU: colony forming unit). The highest final indolic derivative concentration was 128 mg/L. Growth was assayed with a microplate reader by monitoring absorption at 620 nm after 1, 2, 5, 7 and 24 h incubation at 37° C. In addition, the plates were read visually after 24 hours incubation. Cultures containing 5 μL DMSO were used as growth controls. In addition, two controls containing a sub-inhibitory or a inhibitory antibiotic concentration for the tested strain were performed. The antibiotics used were ampicillin (0.5 and 32 μg/mL) for E. coli, kanamycin (0.5 and 16 μg/mL) for S. aureus ATCC 25923, ciprofloxacin (4 and 64 mg/L) for S. aureus 1199B, ciprofloxacin (0.5 and 2 mg/L) for S. aureus K2378. All experiments were performed in duplicate.
(§5) Efflux pump inhibition assays were then performed against resistant Staphylococcus aureus strains SA 1199B and SA K2378 for bis-indolic derivatives. […] The minimal inhibitory concentration (MIC) of the bis-indolic compound allowing a complete inhibition of the bacterial growth in the presence of ciprofloxacin was determined.

[9] = system: Staphylococcus aureus K2378 (overexpresses the efflux pump NorA from a multicopy plasmid); experiment: as above; type: cell-based; details: S. aureus K2378; in the presence of ciprofloxacin 0.5 mg/L
Description: as §3, §4, §5

[10] = system: S. aureus ATCC 25923; experiment: MIC, microdilution method (9.1); type: cell-based, Staphylococcus aureus; details: Staphylococcus aureus, ATCC25923, read after 18 h, read-out: MIC
Method in brief: as §2

[11] = system: S. aureus ATCC 106414 (VISA); experiment: MIC, microdilution method (9.1); type: cell-based, Staphylococcus aureus; details: Staphylococcus aureus, read after 18 h, read-out: MIC
Method in brief: as §2

[12] = system: S. aureus CIP 103428; experiment: MIC, microdilution method (9.1); type: cell-based, Staphylococcus aureus; details: Staphylococcus aureus, CIP103428, read after 18 h, read-out: MIC
Method in brief: as §2

[13] = system: S. aureus CIP 65.25 (MRSA); experiment: MIC, microdilution method (9.1); type: cell-based, Staphylococcus aureus; details: Staphylococcus aureus, read after 18 h, read-out: MIC
Method in brief: as §2

[14] = system: S. aureus ATCC 33592 (MRSA); experiment: MIC, microdilution method (9.1); type: cell-based, Staphylococcus aureus; details: Staphylococcus aureus, read after 18 h, read-out: MIC
Method in brief: as §2

[15] = system: S. aureus CIP 65.6; experiment: MIC, microdilution method (9.1); type: cell-based, Staphylococcus aureus; details: Staphylococcus aureus, CIP65, read after 18 h, read-out: MIC
Method in brief: as §2

[16] = system: S. aureus SA-1199B; experiment: MIC, microdilution method (9.1); type: cell-based, Staphylococcus aureus; details: Staphylococcus aureus, SA1199B, 18 h
Method in brief: as §2

[17] = system: S. aureus ATCC 6538; experiment: MIC, microdilution method (9.1); type: cell-based, Staphylococcus aureus; details: Staphylococcus aureus, ATCC6538, read after 18 h, read-out: MIC
Method in brief: as §2

[18] = system: S. aureus ATCC 29213; experiment: MIC, microdilution method (9.1); type: cell-based, Staphylococcus aureus; details: Staphylococcus aureus, ATCC29213, read after 18 h, read-out: MIC
Method in brief: as §2

[19] = system: S. aureus ATCC 9144; experiment: MIC, microdilution method (9.1); type: cell-based, Staphylococcus aureus; details: Staphylococcus aureus, ATCC9144, read after 18 h, read-out: MIC
Method in brief: as §2

[20] = system: Klebsiella pneumoniae API ATCC 35657; experiment: MIC, microdilution method (9.1); type: cell-based; details: ATCC35657, 18 h, read-out: MIC
Method in brief: as §2

[21] = system: Acinetobacter baumanii ATCC 19606; experiment: MIC, microdilution method (9.1); type: cell-based; details: Acinetobacter baumannii, ATCC19606, 18 h, read-out: MIC
Method in brief: as §2

[22] = system: S. pneumoniae ATCC 49619; experiment: MIC, microdilution method (9.1); type: cell-based; details: Streptococcus pneumoniae, ATCC49619, 10% sheep blood, 5% CO2, 18 h
Method in brief: (§6)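 Standard CLSI broth microdilution. Test range 0.50-128 mg/L (final), doubling steps.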

[23] = system: Pseudomonas aeruginosa CIP 5933; experiment: MIC, microdilution method (9.1); type: cell-based; details: CIP5933, 18 h, read-out: MIC
Method in brief: as §2

[24] = system: Haemophilus influenzae ATCC 49766; experiment: MIC, microdilution method (9.1); type: cell-based; details: ATCC49766; Haemophilus influenzae ATCC 49766; 10% sheep blood, 5% CO2; 18 h; read-out: MIC
Method in brief: as §6

[25] = system: Serratia marcescens CIP 103551; experiment: MIC, microdilution method (9.1); type: cell-based; details: CIP103551, 18 h
Method in brief: as §2

[26] = system: Enterobacter cloacae ATCC13047; experiment: MIC, microdilution method (9.1); type: cell-based; details: 18 h
Method in brief: as §2

[27] = system: Escherichia coli ATCC 25922; experiment: MIC, microdilution method (9.1); type: cell-based; details: ATCC25922, 18 h
Method in brief: as §2

[28] = system: Bacillus subtilis CIP 5262; experiment: MIC, microdilution method (9.1); type: cell-based; details: CIP5262, 18 h, read-out: MIC
Method in brief: as §2

[29] = system: Listeria innocua CIP 80.11; experiment: MIC, microdilution method (9.1); type: cell-based; details: CIP80, 18 h, read-out: MIC
Method in brief: as §2

[30] = system: S. pyogenes (group A) CIP 104226; experiment: MIC, microdilution method (9.1); type: cell-based, Streptococcus pyogenes; details: Streptococcus pyogenes, CIP104226, 18 h, read-out: MIC
Method in brief: as §2

[31] = system: S. agalactiae (group B) ATCC 12400; experiment: MIC, microdilution method (9.1); type: cell-based, Streptococcus agalactiae; details: Streptococcus agalactiae, ATCC12400, 18 h, read-out: MIC
Method in brief: as §2

[32] = system: E. faecalis ATCC 29212; experiment: MIC, microdilution method (9.1); type: cell-based, Enterococcus faecalis; details: Enterococcus faecalis, ATCC29212, 18 h, read-out: MIC
Method in brief: as §2

[33] = system: S. pneumoniae ATCC 6303; experiment: MIC, microdilution method (9.1); type: cell-based, Streptococcus pneumoniae; details: Streptococcus pneumoniae, ATCC6303, 10% sheep blood, 5% CO2, 18 h, read-out: MIC
Method in brief: as §6

[34] = system: S. mitis CIP 103335; experiment: MIC, microdilution method (9.1); type: cell-based, Streptococcus mitis; details: Streptococcus mitis, CIP103335, 18 h, read-out: MIC
Method in brief: as §2

[35] = system: E. faecium CIP 54.32; experiment: MIC, microdilution method (9.1); type: cell-based, Enterococcus faecium; details: Enterococcus faecium, CIP54, 18 h, read-out: MIC
Method in brief: as §2

[36] = in the presence of ciprofloxacin 2 mg/L
[37] = in the presence of ciprofloxacin 4 mg/L

For `COc1cccc(OC)c1C(=O)N[C@@H]1C(=O)N2[C@@H]1SC(C)(C)[C@@H]2C(=O)O` [methicillin], the mutation frequency [1] is listed as ~10^−9.

`O=C(NC(C(=O)O)c1c[nH]c2ccc(Br)cc12)c1c[nH]c2ccc(Br)cc12` (stereo not drawn) [Compound 12, 2-(5-Bromo-1H-indol-3-yl)-2-(5-bromo-1H-indole-3-carboxamido) acetic acid] gave an inhibition at 10 µM [2] of 3 ± 3%, an inhibition at 1 µM [2] of 3% and an inhibition at 10 µM [3] of 0%. It also gave an inhibition at 1 µM [3] of 0%, an inhibition at 10 µM [4] of 0% and an inhibition at 1 µM [4] of 0%. It also gave an MIC [5] of over 32 µg/mL, an MIC [6] of over 32 µg/mL and an MIC [7] of over 32 µg/mL. For the same compound, the melting point was 195 °C, the “MIC, mg/L (Ciprofloxacin concentration, mg/L)” value (from here on “MIC, mg/L”) [8, 36] was 32 (2) mg/L and the “MIC, mg/L” value [8, 37] was 64 (4) mg/L. The “MIC, mg/L” value [9] was 64 (0.5) mg/L, the MIC [10] was over 32 µg/mL and the MIC [11] was over 32 µg/mL. The MIC [12] was over 32 µg/mL, the MIC [13] was over 32 µg/mL and the MIC [14] was over 32 µg/mL. It also gave an MIC [15] of over 32 µg/mL, an MIC [16] of over 32 µg/mL and an MIC [17] of over 32 µg/mL. For the same compound, the MIC [18] was over 32 µg/mL and the MIC [19] was over 32 µg/mL.

In the case of `Cc1onc(-c2ccccc2)c1C(=O)N[C@@H]1C(=O)N2[C@@H]1SC(C)(C)[C@@H]2C(=O)O` [oxacillin], the mutation frequency [1] is given as ~10^−9.

`CC(C)(C)OC(=O)NCC(NC(=O)c1c[nH]c2ccccc12)c1c[nH]c2ccccc12` (stereo not drawn) [Compound 3a, tert-Butyl (2-(1H-indol-3-yl)-2-(1H-indole-3-carboxamido)ethyl)carbamate] gave an inhibition at 10 µM [2] of 14 ± 1%, an inhibition at 1 µM [2] of 2% and an inhibition at 10 µM [3] of 22 ± 5%. The inhibition at 1 µM [3] was 11%, the inhibition at 10 µM [4] was 18 ± 1% and the inhibition at 1 µM [4] was 16%. The MIC [20] was over 128 µg/mL, the MIC [21] was over 128 µg/mL and the MIC [22] was over 128 µg/mL. For the same compound, the MIC [23] was over 128 µg/mL, the MIC [24] was over 128 µg/mL and the MIC [25] was over 128 µg/mL. For the same compound, the MIC [26] was over 128 µg/mL, the MIC [27] was over 128 µg/mL and the MIC [28] was over 128 µg/mL. It also gave an MIC [29] of over 128 µg/mL, an MIC [7] of over 128 µg/mL and an MIC [30] of over 128 µg/mL. The MIC [31] was over 128 µg/mL, the “MIC, mg/L” value ([8]; in the presence of ciprofloxacin 1 mg/L) was 2 (1) mg/L and the “MIC, mg/L” value [8, 36] was 0.5 (2) mg/L. For the same compound, the “MIC, mg/L” value [8, 37] was 0.25 (4) mg/L, the “MIC, mg/L” value [9] was 4 (0.5) mg/L and the MIC [10] was over 128 µg/mL. The MIC [18] was over 128 µg/mL, the MIC [32] was over 128 µg/mL and the MIC [33] was over 128 µg/mL. The MIC [34] was over 128 µg/mL and the MIC [35] was over 128 µg/mL.
